These results are taken from patent US6054459A, “Substituted 1,2,3,4-tetrahydro-5-nitro-pyrimidines” (priority 1994, dated 2000).

For data set [1], the system named is Plutella maculipennis. In words: Plutella test. Format: in vivo, Plutella maculipennis (diamond-back moth). The conditions noted are these: 72 h, read-out: Degree of destruction in % after 3d. Here is the method: (§1) Solvent: 7 parts by weight of dimethylformamide
(§2) Emulsifier: 1 part by weight of alkylaryl polyglycol ether
(§3) To produce a suitable preparation of active compound, 1 part by weight of active compound is mixed with the stated amount of solvent and the stated amount of emulsifier, and the concentrate is diluted with water to the desired concentration.
Cabbage leaves (Brassica oleracea) are treated by being dipped into the preparation of active compound of the desired concentration and are infested with caterpillars of the diamond-back moth (Plutella maculipennis) while the leaves are still moist.
After the desired period of time, the destruction in % is determined. 100% means that all the caterpillars have been killed; 0% means that none of the caterpillars have been killed.

Data set [2] relates to Myzus persicae. Kind of data set: Myzus test. Format: in vivo, Myzus persicae (green peach aphid). The following applies: 144 h, read-out: Degree of destruction in % after 6d. Here is the method:
as §1, §2, §3
Cabbage leaves (Brassica oleracea) which are severely infested with the green peach aphid (Myzus persicae) are treated by being dipped into the preparation of active compound of the desired concentration.
After the desired period of time, the destruction in % is determined. 100% means that all the aphids have been killed; 0% means that none of the aphids have been killed.

Data set [3] is described as follows: lg P (physical data).
Where [4] appears, read: active compound concentration 0.01 %, after 3d.
Setting [5] is: active compound concentration 0.1 %, after 3d.

Read-outs that look alike come from different tables or passages of the source.

For the molecule `CC(=O)OCCN1CC([N+](=O)[O-])=C2N(Cc3ccc(Cl)nc3)CCN2C1`, in data set [1], the mortality at 0.01 % was 100% and the mortality at 0.1 % is 100%.

`CC(C)(C)CNC(=O)OCCCN1CC([N+](=O)[O-])=C2N(Cc3ccc(Cl)nc3)CCN2C1`: the mortality at 0.01 % in data set [1] (setting [4]) was found to be 100%. The mortality at 0.1 % in data set [1] (setting [5]) came to 100%.

Take `CCCCNC(=O)OCCCN1CC([N+](=O)[O-])=C2N(Cc3ccc(Cl)nc3)CCN2C1`: the mortality at 0.001 % in data set [2] (active compound concentration 0.001 %, after 6d) was found to be 98%. The mortality at 0.01 % in data set [2] (active compound concentration 0.01 %, after 6d) was found to be 100%.

As usually defined, the logP is a log measure of how a compound divides between an organic and an aqueous phase. A higher logP goes with higher lipophilicity. Consider `COCCNC(=O)OCCCN1CC([N+](=O)[O-])=C2N(Cc3ccc(Cl)nc3)CCN2C1` [Example 31], for which, in data set [3], the log partition coefficient (logP) was 1.11.

As for `CCOCCOCCNC(=O)OCCN1CC([N+](=O)[O-])=C2N(Cc3ccc(Cl)nc3)CCN2C1` [Example 32], the logP in data set [3] was determined as 1.26.

In data set [3], `CC(COC(C)(C)C)NC(=O)OCCN1CC([N+](=O)[O-])=C2N(Cc3ccc(Cl)nc3)CCN2C1` (centres unmarked) [Example 33] registered a logP of 2.26.

In turn, `COCCOCCNC(=O)OCCCCCN1CC([N+](=O)[O-])=C2N(Cc3ccc(Cl)nc3)CCN2C1` [Example 34] displayed a logP in data set [3] of 1.28.

`CCOCCOCCNC(=O)OCCCCCN1CC([N+](=O)[O-])=C2N(Cc3ccc(Cl)nc3)CCN2C1` [Example 35] yielded a logP in data set [3] of 1.44.

Molecule `COCCNC(=O)OCCCCCN1CC([N+](=O)[O-])=C2N(Cc3ccc(Cl)nc3)CCN2C1` [Example 36] gave a lipophilicity (logP) in data set [3] of 1.24.

Take `O=C(Nc1ccc(S(=O)(=O)C(F)(F)F)cc1)OCCCCCN1CC([N+](=O)[O-])=C2N(Cc3ccc(Cl)nc3)CCN2C1` [Example 37]: the logP in data set [3] is 2.29.

Molecule `O=C(Nc1ccccc1)OCCCCCN1CC([N+](=O)[O-])=C2N(Cc3ccc(Cl)nc3)CCN2C1` [Example 38] came in with a lipophilicity (logP) in data set [3] of 1.79.

In data set [3], `CC(=O)OCCNC(=O)OCCCCCN1CC([N+](=O)[O-])=C2N(Cc3ccc(Cl)nc3)CCN2C1` [Example 39] showed a log partition coefficient (logP) of 0.82.

In data set [3], `CC(C)(C)C(=O)OCCNC(=O)OCCCCCN1CC([N+](=O)[O-])=C2N(Cc3ccc(Cl)nc3)CCN2C1` [Example 40] came in with a logP of 1.81.

Regarding `O=C(Nc1ccc(Cl)cc1)OCCCCCN1CC([N+](=O)[O-])=C2N(Cc3ccc(Cl)nc3)CCN2C1` [Example 41], the logP in data set [3] was 2.09.

As to `CC(C)(C)CNC(=O)OCCCCCN1CC([N+](=O)[O-])=C2N(Cc3ccc(Cl)nc3)CCN2C1` [Example 43], in data set [3], the logP came to 2.01.

On to `O=C(Nc1ccc(SC(F)(F)F)cc1)OCCCCCN1CC([N+](=O)[O-])=C2N(Cc3ccc(Cl)nc3)CCN2C1` [Example 44], for which the logP in data set [3] worked out at 2.74.

For `COC(C)(C)CNC(=O)OCCCCCN1CC([N+](=O)[O-])=C2N(Cc3ccc(Cl)nc3)CCN2C1` [Example 45], the logP in data set [3] turned out to be 1.56.

For `COCCOCCNC(=O)OCCCCCCN1CC([N+](=O)[O-])=C2N(Cc3ccc(Cl)nc3)CCN2C1` [Example 46], in data set [3], the logP stood at 1.47.

`CCOCCOCCNC(=O)OCCCCCCN1CC([N+](=O)[O-])=C2N(Cc3ccc(Cl)nc3)CCN2C1` [Example 47]: in data set [3], the logP stood at 1.63.

Consider `COCCNC(=O)OCCCCCCN1CC([N+](=O)[O-])=C2N(Cc3ccc(Cl)nc3)CCN2C1` [Example 48], for which the lipophilicity (logP) in data set [3] was 1.44.

With `O=C(Nc1ccc(S(=O)(=O)C(F)(F)F)cc1)OCCCCCCN1CC([N+](=O)[O-])=C2N(Cc3ccc(Cl)nc3)CCN2C1` [Example 49], the log partition coefficient (logP) in data set [3] was 2.51.

The molecule `O=C(Nc1ccccc1)OCCCCCCN1CC([N+](=O)[O-])=C2N(Cc3ccc(Cl)nc3)CCN2C1` [Example 50] registered a logP in data set [3] of 2.01.

Molecule `CC(=O)OCCNC(=O)OCCCCCCN1CC([N+](=O)[O-])=C2N(Cc3ccc(Cl)nc3)CCN2C1` [Example 51] yielded a logP in data set [3] of 1.47.

Take `CC(C)(C)C(=O)OCCNC(=O)OCCCCCCN1CC([N+](=O)[O-])=C2N(Cc3ccc(Cl)nc3)CCN2C1` [Example 52]: the logP in data set [3] is 1.98.

In data set [3], `O=C(Nc1ccc(Cl)cc1)OCCCCCCN1CC([N+](=O)[O-])=C2N(Cc3ccc(Cl)nc3)CCN2C1` [Example 53] gave a logP of 2.27.

For `O=C(Nc1ccc(Cl)c(Cl)c1)OCCCCCCN1CC([N+](=O)[O-])=C2N(Cc3ccc(Cl)nc3)CCN2C1` [Example 54], the logP in data set [3] came out at 2.59.

As to `CC(C)(C)CNC(=O)OCCCCCCN1CC([N+](=O)[O-])=C2N(Cc3ccc(Cl)nc3)CCN2C1` [Example 55], in data set [3], the logP stood at 2.05.

`O=C(Nc1ccc(SC(F)(F)F)cc1)OCCCCCCN1CC([N+](=O)[O-])=C2N(Cc3ccc(Cl)nc3)CCN2C1` [Example 56] had a log partition coefficient (logP) in data set [3] of 2.71.

Molecule `COC(C)(C)CNC(=O)OCCCCCCN1CC([N+](=O)[O-])=C2N(Cc3ccc(Cl)nc3)CCN2C1` [Example 57] returned a logP in data set [3] of 1.6.

In turn, `COCCOCCNC(=O)OCCCCN1CC([N+](=O)[O-])=C2N(Cc3ccc(Cl)nc3)CCN2C1` [Example 58] gave a logP in data set [3] of 1.2.

For the molecule `CCOCCOCCNC(=O)OCCCCN1CC([N+](=O)[O-])=C2N(Cc3ccc(Cl)nc3)CCN2C1` [Example 59], in data set [3], the logP was 1.36.

The molecule `O=C(Nc1ccc(S(=O)(=O)C(F)(F)F)cc1)OCCCCN1CC([N+](=O)[O-])=C2N(Cc3ccc(Cl)nc3)CCN2C1` [Example 60] returned a logP in data set [3] of 2.22.

In data set [3], `O=C(Nc1ccccc1)OCCCCN1CC([N+](=O)[O-])=C2N(Cc3ccc(Cl)nc3)CCN2C1` [Example 61] had a logP of 1.72.

The molecule `CC(=O)OCCNC(=O)OCCCCN1CC([N+](=O)[O-])=C2N(Cc3ccc(Cl)nc3)CCN2C1` [Example 62] gave a lipophilicity (logP) in data set [3] of 1.22.

Regarding `CC(C)(C)C(=O)OCCNC(=O)OCCCCN1CC([N+](=O)[O-])=C2N(Cc3ccc(Cl)nc3)CCN2C1` [Example 63], in data set [3], the logP was 1.73.

Turning to `O=C(Nc1ccc(Cl)c(Cl)c1)OCCCCN1CC([N+](=O)[O-])=C2N(Cc3ccc(Cl)nc3)CCN2C1` [Example 65], the logP in data set [3] worked out at 1.53.

The molecule `CC(C)(C)CNC(=O)OCCCCN1CC([N+](=O)[O-])=C2N(Cc3ccc(Cl)nc3)CCN2C1` [Example 66] showed a logP in data set [3] of 1.75.

In the case of `CCCCNC(=O)OC(C)CN1CC([N+](=O)[O-])=C2N(Cc3ccc(Cl)nc3)CCN2C1` (centres unmarked) [Example 75], in data set [3], the logP came to 1.63.

In data set [3], `CCCCNC(=O)OCCCCCN1CC([N+](=O)[O-])=C2N(Cc3cnc(Cl)s3)CCN2C1` [Example 78] gave a lipophilicity (logP) of 1.73.

With `CC(C)(C)NC(=O)OCCCCCCN1CC([N+](=O)[O-])=C2N(Cc3cnc(Cl)s3)CCN2C1` [Example 79], the logP in data set [3] is 1.9.

`O=[N+]([O-])C1=C2N(Cc3cnc(Cl)s3)CCN2CN(CCCCCCO)C1` [II-15] returned a logP in data set [3] of 0.94.

In data set [3], `O=[N+]([O-])C1=C2N(Cc3cnc(Cl)s3)CCN2CN(CCCCCO)C1` [II-16] displayed a logP of 0.71.

For `CC(C)(C)OC(=O)NCCN1CC([N+](=O)[O-])=C2N(Cc3ccc(Cl)nc3)CCN2C1` [drawing 123], in data set [1], the mortality at 0.01 % is 100% and the mortality at 0.1 % was found to be 100%.

Consider `CCOC(=O)NCCN1CC([N+](=O)[O-])=C2N(Cc3ccc(Cl)nc3)CCN2C1` [drawing 124], for which, in data set [1], the mortality at 0.01 % was 100% and the mortality at 0.1 % worked out at 100%.

Take `CC(=O)NCCN1CC([N+](=O)[O-])=C2N(Cc3ccc(Cl)nc3)CCN2C1` [drawing 125]: in data set [1], the mortality at 0.01 % was 100% and the mortality at 0.1 % came out at 100%.

For `CCOC(=O)NCCCN1CC([N+](=O)[O-])=C2N(Cc3ccc(Cl)nc3)CCN2C1` [drawing 126], in data set [1], the mortality at 0.01 % was 100% and the mortality at 0.1 % was found to be 100%.

As for `O=C(NCCN1CC([N+](=O)[O-])=C2N(Cc3ccc(Cl)nc3)CCN2C1)OCc1ccccc1` [drawing 127], the mortality at 0.01 % in data set [1] (setting [4]) worked out at 100%. The mortality at 0.1 % in data set [1] (setting [5]) was determined as 100%.

Turning to `CNC(=O)OCCCN1CC([N+](=O)[O-])=C2N(Cc3ccc(Cl)nc3)CCN2C1` [drawing 128], in data set [1], the mortality at 0.01 % turned out to be 100% and the mortality at 0.1 % turned out to be 100%.

With `CC(=O)OCCCN1CC([N+](=O)[O-])=C2N(Cc3ccc(Cl)nc3)CCN2C1` [drawing 129], in data set [1], the mortality at 0.01 % worked out at 100% and the mortality at 0.1 % is 100%.

For the molecule `O=C(NCCCCCCCl)OCCCN1CC([N+](=O)[O-])=C2N(Cc3ccc(Cl)nc3)CCN2C1` [drawing 132], the mortality at 0.01 % in data set [1] (setting [4]) was 100%. For the same molecule, the mortality at 0.1 % in data set [1] (setting [5]) turned out to be 100%.

As to `O=[N+]([O-])C1=C2N(Cc3ccc(Cl)nc3)CCCN2CN(CCOCC(F)(F)F)C1` [drawing 137, reference compound], in data set [2], the mortality at 0.001 % is 0% and the mortality at 0.01 % was found to be 80%.

Turning to `CC(C)(C)OC(=O)NCCN1CC([N+](=O)[O-])=C2N(Cc3ccc(Cl)nc3)CCN2C1` [drawing 138], in data set [2], the mortality at 0.001 % is 100% and the mortality at 0.01 % was found to be 100%.

As for `CCOC(=O)NCCN1CC([N+](=O)[O-])=C2N(Cc3ccc(Cl)nc3)CCN2C1` [drawing 139], in data set [2], the mortality at 0.001 % turned out to be 95% and the mortality at 0.01 % came out at 100%.

Consider `CC(=O)NCCN1CC([N+](=O)[O-])=C2N(Cc3ccc(Cl)nc3)CCN2C1` [drawing 140], for which, in data set [2], the mortality at 0.001 % was determined as 100% and the mortality at 0.01 % was determined as 100%.

As to `CCOC(=O)NCCCN1CC([N+](=O)[O-])=C2N(Cc3ccc(Cl)nc3)CCN2C1` [drawing 141], in data set [2], the mortality at 0.001 % was 99% and the mortality at 0.01 % worked out at 100%.
